Reference: patent publication US20240287054A1, “COMPOUNDS THAT BIND NON-CANONICAL G-QUADRUPLEX STRUCTURES AND METHODS OF MAKING AND USING THE SAME” (The U.S.A., as Represented by the Secretary, Department of …, priority 2021, published 2024)

How the values were obtained:
MYCN G4 DNA [1] = assay: DMS footprinting of 5′Cy5-labeled MYCN G4 DNA; type: binding, human
Method: DMS footprinting. Footprinting of 5′Cy5-labelled DNA was performed as described in the literature (Zhang et al., JACS 2014, 136:1381-1390; Li et al., PNAS 2015, 112:14581-14586). […] Then, DNA solutions were diluted to 50 nM in corresponding buffers (2 mL final volume in each tube) and compound stock solutions (in DMSO) were added resulting in solutions with designed concentrations (resulting in 5% DMSO). After incubation for 30 min, the folded DNA samples were treated with 0.5% DMS for 10 min at RT and the reaction was stopped by adding 200 μL stop buffer (2.5 M NH4OAc, 0.1 M β-mercaptoethanol, 1 mg/mL calf thymus DNA). After phenol/chloroform/isoamyl alcohol extraction and ethanol precipitation, the DNAs were dissolved in 50 μL of nuclease free water. An equal volume of 10% piperidine was added to each tube, and the mixed solutions were heated at 90° C. for 30 min, followed by quick chilling on ice. The DNAs were again subjected to phenol/chloroform/isoamyl alcohol extraction and ethanol precipitation. The precipitated DNAs were dissolved in 10 μL of nuclease free water, denatured at 95° C. for 5 min, and resolved on a 17% denaturing polyacrylamide gel. After gel running, Cy5-labeled DNA fragments were visualized on a Typhoon Imager (Amersham) and digitized using Image J software.
In this example, DMS-footprinting was conducted by using 5′-Cy5-labeled MYCN hairpin-G4 DNA. […]

MYCN G4 DNA [2] = assay: Fluorescence intensity assay (FIA) with 5′Cy5-labeled MYCN G4 DNA; type: binding, human; conditions: for Kd: 5′Cy5-labeled MYCN G4 titrated with compound; for positive binding in FIA (>10% quenching): single concentration 100 μM compound, 5′Cy5-MYCN G4
Method: (§1) Fluorescence intensity assay. In this disclosure, fluorescence intensity assay (FIA) was used for both validation of hit binding at a single dose and binding affinity determination. For validating hit compounds from SMM screening, 100 μM solution of each compound was prepared in triplicate in a 96 well-plate (Costar, black side clear bottom), resulting in 5% DMSO concentration. 5′Cy5-labeled MYCN G4 DNA was annealed as described above, then added into the well plate resulting in a final concentration of 100 nM. The plate was incubated shaking for 30 min, followed by centrifuging at 500 rpm for 2 minutes. The fluorescence intensity was then measured on a Synergy Mx microplate reader (BioTek) at Ex 649 nm/Em 670 nm. TMPyP4/DMSO were used as positive and negative controls, respectively. In certain examples, compounds were considered binders when a change of >10% change in fluorescence intensity was observed compared to that of negative control (DMSO solution). For binding affinity measurement, small molecule solutions were prepared as serial dilutions in DMSO. Then a final test plate was prepared by adding 5 μL small molecule solutions and 10 μL annealed DNA samples into 85 μL buffer solutions, resulting in the final small molecule concentrations from 0 to 250 μM (5% final DMSO concentration). The fluorescence intensities were normalized, and the binding affinity was calculated by fitting the curve using one-site total model in GraphPad Prism 8.3.1 software. The fluorescence titration using 3′-labeled oligonucleotides was also performed the same way.

[3] = target: mutated/truncated MYCN G4 DNA; assay: FIA titration with mutated long loop and truncated (no hairpin) MYCN G4 DNAs; type: binding, human
Method: as §1
To further understand the binding details between compound MY-1 and MYCN G4, a series of FIA studies were designed and performed. […] After incubating 100 μM MY-1 with labeled DNA samples, fluorescence intensities were measured and compared to DMSO controls. Fluorescence of the A11 2-AP DNA sample was quenched by almost 100%, while the quenching percentages were 80% and 70% for A18 and A24 2-AP DNAs, respectively (FIG. 24B, FIGS. 25A-25C). […]

dsDNA = assay: CD melting test of dsDNA; type: binding; conditions: CD melting of dsDNA with compound
[4] = target: MYCN G4 DNA (2-AP at A11); assay: 2-Aminopurine (2-AP) fluorescence titration, A11-labeled MYCN G4; type: binding, human; conditions: 2-AP at A11 of MYCN G4
Method: 2-Aminopurine (2-AP) fluorescence titration. Fluorescence titrations based on 2-aminopurine labeling were performed using the protocol reported previously. Briefly, MYCN G4 oligonucleotide with a 2-AP substitution at either A11 or A18 position was annealed by heating the sample to 95° C. for 5 min and cooling down to RT slowly. The oligonucleotide with folded structure was diluted to 10 μM in Tris buffer (10 mM Tris, pH7.0, 100 mM KCl, 0.005% Tween 20) and prepared in a black 96-well plate (Costar) in triplicate as designed. Small molecules were diluted in DMSO to obtain a series of solutions with concentrations ranging from 0.1 to 5 mM, and then diluted by 20 times added into the plate (5% DMSO final concentration). The final concentration of 2-AP DNA was 1 μM in the well plate. To obtain the background fluorescence, small molecule solutions without DNA were also prepared in the same plate. After incubation for 30 min at RT, the plate was briefly centrifuged and scanned in Synergy Mx microplate reader (BioTek) with Ex 310 nm/Em 365 nm. Fluorescence signals were calculated by averaging the intensities in triplicate wells after subtracting the references. Finally, the binding signals were normalized and the KD value was determined by fitting the curve using a nonlinear sigmoidal dose-response model with a variable slope in GraphPad Prism 8.3.1 software.

SMILES	protection of guanines from DMS (MYCN G4 DNA [1]; 10 mM LiCl + 10 mM NaCl Tris buffer, 0-100 nM compound)	Kd (MYCN G4 DNA [2]) [µM]	positive binding in FIA (>10% quenching) (MYCN G4 DNA [2])	binding affinity to mutated long loop and truncated MYCN G4 DNAs ([3]; 5′-Cy5 labeled constructs without hairpin)	effect on dsDNA melting (dsDNA)	Kd [4] [µM]	Kd ([3]; 5′-Cy5 labeled constructs without hairpin, read-out: binding affinity to mutated long loop and truncated MYCN G4 DNAs) [µM]	fold weaker binding than wild type MYCN G4 ([3]; mutated/truncated vs wild type) [fold]	protection of guanines from DMS (MYCN G4 DNA [1]; 5 mM KCl buffer, compound at concentrations according to KD)	A11 2AP KD [4]
COc1ccc(-c2noc(-c3ccc(NCCCNc4c5ccc(Cl)cc5nc5ccc(OC)cc45)nn3)n2)cc1 [B33, N^1-(6-chloro-2-methoxyacridin-9-yl)-N^3-(6-(3-(4-methoxyphenyl)-1,2,4-oxadiazol-5-yl)pyridazin-3-yl)propane-1,3-diamine]	protection of G2-9, G10-12, and G17-21	–	–	–	–	–	–	–	–	–
CCCN1CCN(c2nnc(-n3cccc3CNCCCN3CCCCCC3)s2)CC1 [Compound 1]	–	20.8 ± 2.2	hits	comparable to wild type	Neither of the compounds showed a measurable effect	–	–	–	–	–
COc1ccc(-c2noc(-c3ccc(NCCCN4CCCC4)nn3)n2)cc1 [MY-1, 6-(3-(4-methoxyphenyl)-1,2,4-oxadiazol-5-yl)-N-(3-(pyrrolidin-1-yl)propyl)pyridazin-3-amine]	–	3.5 ± 1.6	hits	–	Neither of the compounds showed a measurable effect	3.2 ± 0.6	> 100	~30	G8, G9, G16, G17 were protected considerably, while G13-G15 were slightly protected	–
COc1ccc(-c2noc(-c3ccc(NCCCN4CCCCCC4)nn3)n2)cc1 [MY-8, N-(3-(azepan-1-yl)propyl)-6-(3-(4-methoxyphenyl)-1,2,4-oxadiazol-5-yl)pyridazin-3-amine]	–	–	–	–	–	0.6 ± 0.2	–	–	–	sub-micromolar binders
